According to publication PMC3806051 (Journal of the American Chemical Society, 2013):
Where “and” joins values, the source holds several entries; their conditions need not be identical. Equal values may be shown once. Entries after “also recorded” stand apart in the source; their conditions may differ. Read-outs that look alike come from different tables or passages of the source.

Legend:
[1] = Isomerization in binding assay medium; type: physicochemical; conditions: for proportion of isomer in the mixture: 100 h time-point, regardless which isomer was used at the beginning; for isomerization kinetics in binding assay medium: room temperature
[2] = Stability / isomerization in organic solvents; conditions: CH2Cl2, THF, EtOAc, DMSO
[3] = target: recombinant human His-tagged MDM2 protein (residues 1–118) (Homo sapiens, UniProt Q00987); assay: FP-based competitive protein binding assay
[4] = system: SJSA-1 osteosarcoma tumor xenograft; type: in vivo; conditions: for tumor growth inhibition as compared to vehicle control: end of treatment (day 26); for weight loss or other signs of toxicity: 5a 200 mg/kg, 5b 100 and 200 mg/kg daily oral 14 days
[5] = system: p53 activation in SJSA-1 tumor tissue; assay: Pharmacodynamic study, Western blotting of tumor tissue; type: in vivo, mouse; conditions: single oral dose 200 mg/kg; for p53 activation in tumor tissue (accumulation of p53, MDM2 and p21): Western blot
[6] = Interconversion of isomers in MeCN-H2O; type: physicochemical; conditions: for isomerization in CH3CN-H2O: over a period of up to four days
[7] = system: SJSA-1 osteosarcoma cell line; assay: cells; conditions: Homo sapiens, read-out: IC50 cell growth inhibition
[8] = Isomerization in vivo in plasma and tumor tissue; conditions: plasma and tumor tissue of SCID mice
[9] = Plasma concentration in tumor bearing SCID mice; conditions: for Plasma Concentration of isomer: single oral 100 mg/kg, 24 h
[10] = Tumor tissue concentration in tumor bearing SCID mice; conditions: for Tumor Concentration of isomer: single oral 100 mg/kg, 24 h
[11] = Isomerization in cell culture medium; type: physicochemical; conditions: 2 days, starting from 5a or 5b
MDM2 = conditions: ref 6b; cited from earlier work
[12] = system: animal models of human cancer; conditions: ref 6b; cited from earlier work
[13] = binding assay medium, after 12 days
[14] = FP competitive binding to MDM2, incubation 15 min
[15] = calculated from IC50, FP competitive binding to MDM2, incubation 15 min

SMILES: CN(C)C(=O)[C@@H]1N[C@H](CC(C)(C)C)[C@]2(C(=O)Nc3cc(Cl)ccc32)[C@H]1c1cccc(Cl)c1 [1a, (2′R,3S,4′R,5′R)-6-chloro-4′-(3-chlorophenyl)-N,N-dimethyl-2′-neopentyl-2-oxospiro[indoline-3,3′-pyrrolidine]-5′-carboxamide]
- remaining of starting isomer [1, 13]: 17.6%
- converted into 1b ([1]; binding assay medium, after 12 days, started with 1a): 53%
- stability in aprotic solvents [2]: relatively stable

SMILES: CN(C)C(=O)[C@@H]1N[C@@H](CC(C)(C)C)[C@@]2(C(=O)Nc3cc(Cl)ccc32)[C@H]1c1cccc(Cl)c1 [1b, (2′S,3R,4′R,5′R)-6-chloro-4′-(3-chlorophenyl)-N,N-dimethyl-2′-neopentyl-2-oxospiro[indoline-3,3′-pyrrolidine]-5′-carboxamide]
- remaining of starting isomer [1, 13]: 93.9%

SMILES: CNC(=O)[C@@H]1N[C@H](CC(C)(C)C)[C@]2(C(=O)Nc3cc(Cl)ccc32)[C@H]1c1cccc(Cl)c1 [2a, (2′R,3S,4′R,5′R)-6-chloro-4′-(3-chlorophenyl)-N-methyl-2′-neopentyl-2-oxospiro[indoline-3,3′-pyrrolidine]-5′-carboxamide]
- IC50 [3]: 565 ± 57 nM
- Ki [3]: 76.2 ± 7.7 nM

SMILES: CNC(=O)[C@@H]1N[C@@H](CC(C)(C)C)[C@@]2(C(=O)Nc3cc(Cl)ccc32)[C@H]1c1cccc(Cl)c1 [2b, (2′S,3R,4′R,5′R)-6-chloro-4′-(3-chlorophenyl)-N-methyl-2′-neopentyl-2-oxospiro[indoline-3,3′-pyrrolidine]-5′-carboxamide]
- IC50 [3]: 30.9 ± 2.9 nM
- Ki [3]: 3.1 ± 0.3 nM

SMILES: CNC(=O)[C@@H]1N[C@H](CC(C)(C)C)[C@]2(C(=O)Nc3cc(Cl)ccc32)[C@H]1c1cccc(Cl)c1F [4a, (2′R,3S,4′S,5′R)-6-chloro-4′-(3-chloro-2-fluorophenyl)-Nmethyl-2′-neopentyl-2-oxospiro[indoline-3,3′-pyrrolidine]-5′-carboxamide]
- IC50 [3, 14]: 387 ± 39 nM
- Ki [3, 15]: 51.8 ± 4.2 nM

SMILES: CNC(=O)[C@@H]1N[C@@H](CC(C)(C)C)[C@@]2(C(=O)Nc3cc(Cl)ccc32)[C@H]1c1cccc(Cl)c1F [4b, (2′S,3R,4′S,5′R)-6-chloro-4′-(3-chloro-2-fluorophenyl)-Nmethyl-2′-neopentyl-2-oxospiro[indoline-3,3′-pyrrolidine]-5′-carboxamide]
- IC50 [3, 14]: 25.9 ± 1.5 nM
- Ki [3, 15]: 2.4 ± 0.2 nM
- times more potent than the respective isomer a (binding to MDM2) ([3]; cis-cis isomer b versus trans-cis isomer a): > 15 times

SMILES: CC(C)(C)C[C@H]1N[C@@H](C(=O)NCC[C@H](O)CO)[C@H](c2cccc(Cl)c2F)[C@@]12C(=O)Nc1cc(Cl)ccc12 [5a, (2′R,3S,4′S,5′R)-6-chloro-4′-(3-chloro-2-fluorophenyl)-N-((S)-3,4-dihydroxybutyl)-2′-neopentyl-2-oxospiro[indoline-3,3′-pyrrolidine]-5′-carboxamide]
- tumor growth inhibition as compared to vehicle control ([4]; 200 mg/kg daily oral gavage 14 days): 41%
- weight loss or other signs of toxicity [4]: no significant weight loss
- p53 activation in tumor tissue (accumulation of p53, MDM2 and p21) [5]: effectively activated p53
- isomerization in CH3CN-H2O [6]: gradually converted into a mixture of four isomers
- proportion of isomer in the mixture ([1]; binding assay medium): ~40%
- IC50 ([7]; SJSA-1, 24 h): 30300 ± 6230 nM
- IC50 ([7]; SJSA-1, 48 h): 950 ± 160 nM
- IC50 ([7]; SJSA-1, 72 h): 180 ± 20 nM
- IC50 ([7]; SJSA-1, 96 h): 150 ± 30 nM
- isomerization in vivo [8]: isomerizes very fast
- Plasma Concentration of isomer ([9]; dosed with 5a): BLQ
- Plasma Concentration of isomer ([9]; dosed with 5b): BLQ ^b
- Tumor Concentration of isomer ([10]; dosed with 5a): BLQ
- Tumor Concentration of isomer ([10]; dosed with 5b): BLQ

SMILES: CC(C)(C)C[C@@H]1N[C@@H](C(=O)NCC[C@H](O)CO)[C@H](c2cccc(Cl)c2F)[C@]12C(=O)Nc1cc(Cl)ccc12 [5b, (2′S,3R,4′S,5′R)-6-chloro-4′-(3-chloro-2-fluorophenyl)-N-((S)-3,4-dihydroxybutyl)-2′-neopentyl-2-oxospiro[indoline-3,3′-pyrrolidine]-5′-carboxamide]
- tumor growth inhibition as compared to vehicle control ([4]; 100 mg/kg daily oral gavage 14 days): 67%
- weight loss or other signs of toxicity [4]: no significant weight loss
- apoptosis induction in tumor tissue (PARP cleavage, caspase-3 activation) ([5]; 24 h): stronger apoptosis induction than 5a
- p53 activation in tumor tissue (accumulation of p53, MDM2 and p21) ([5]; 200 mg/kg): effectively activated p53; also recorded: clearly more potent than 5a
- converted into a mixture of three other isomers ([6]; CH3CN-H2O, after 12 days): 4%
- proportion of isomer in the mixture ([1]; binding assay medium): approximately 50%
- isomerization kinetics in binding assay medium [1]: slow isomerization kinetic and was the most stable
- proportion of 5b of all 4 isomers [11]: approximately 50%
- IC50 ([7]; SJSA-1, 24 h): 18100 ± 2400 nM
- IC50 ([7]; SJSA-1, 48 h): 630 ± 40 nM
- IC50 ([7]; SJSA-1, 72 h): 180 ± 10 nM
- isomerization in vivo [8]: isomerizes slowly
- Plasma Concentration of isomer ([9]; dosed with 5a): BLQ
- plasma concentration of 5b in mice dosed with 5b versus mice dosed with 5a ([9]; mouse, in vivo): 7 fold and 12 fold
- Tumor Concentration of isomer ([10]; dosed with 5a): BLQ
- Tumor Concentration of isomer ([10]; dosed with 5b): BLQ
- tumor tissue concentration of 5b in mice dosed with 5b versus mice dosed with 5a ([10]; mouse, in vivo): 11 fold and 16 fold

SMILES: CC(C)(C)C[C@@H]1N[C@@H](C(=O)NCC[C@H](O)CO)[C@H](c2cccc(Cl)c2F)[C@@]12C(=O)Nc1cc(Cl)ccc12 [5c, (2′S,3S,4′S,5′R)-6-chloro-4′-(3-chloro-2-fluorophenyl)-N-((S)-3,4-dihydroxybutyl)-2′-neopentyl-2-oxospiro[indoline-3,3′-pyrrolidine]-5′-carboxamide]
- isomerization in CH3CN-H2O [6]: gradually converted into a mixture of four isomers
- isomerized into 5b ([1]; binding assay medium, within 30 min): approximately 20%
- isomerization kinetics in binding assay medium [1]: very fast isomerization kinetics

SMILES: CC(C)(C)C[C@H]1N[C@@H](C(=O)NCC[C@H](O)CO)[C@H](c2cccc(Cl)c2F)[C@]12C(=O)Nc1cc(Cl)ccc12 [5d, (2′R,3R,4′S,5′R)-6-chloro-4′-(3-chloro-2-fluorophenyl)-N-((S)-3,4-dihydroxybutyl)-2′-neopentyl-2-oxospiro[indoline-3,3′-pyrrolidine]-5′-carboxamide]
- isomerization in CH3CN-H2O [6]: gradually converted into a mixture of four isomers

SMILES: CCOC(=O)[C@@H]1N[C@H](CC(C)(C)C)[C@]2(C(=O)Nc3cc(Cl)ccc32)[C@H]1c1cccc(Cl)c1F [7a, (2′R,3S,4′S,5′R)-ethyl 6-chloro-4′-(3-chloro-2-fluorophenyl)-2′-neopentyl-2-oxospiro[indoline-3,3′-pyrrolidine]-5′-carboxylate]
- IC50 [3]: 19500 ± 4000 nM
- Ki [3]: 2700 ± 500 nM

SMILES: CCOC(=O)[C@@H]1N[C@@H](CC(C)(C)C)[C@@]2(C(=O)Nc3cc(Cl)ccc32)[C@H]1c1cccc(Cl)c1F [7b, (2′S,3R,4′S,5′R)-ethyl 6-chloro-4′-(3-chloro-2-fluorophenyl)-2′-neopentyl-2-oxospiro[indoline-3,3′-pyrrolidine]-5′-carboxylate]
- IC50 [3]: 721 ± 79 nM
- Ki [3]: 97.5 ± 10.7 nM

SMILES: CC(C)(C)C[C@H]1N[C@@H](C(=O)O)[C@H](c2cccc(Cl)c2F)[C@@]12C(=O)Nc1cc(Cl)ccc12 [8a, (2′R,3S,4′S,5′R)-6-chloro-4′-(3-chloro-2-fluorophenyl)-2′-neopentyl-2-oxospiro[indoline-3,3′-pyrrolidine]-5′-carboxylic acid]
- IC50 [3]: 498 ± 44 nM
- Ki [3]: 67 ± 5.9 nM

SMILES: CC(C)(C)C[C@@H]1N[C@@H](C(=O)O)[C@H](c2cccc(Cl)c2F)[C@]12C(=O)Nc1cc(Cl)ccc12 [8b, (2′S,3R,4′S,5′R)-6-chloro-4′-(3-chloro-2-fluorophenyl)-2′-neopentyl-2-oxospiro[indoline-3,3′-pyrrolidine]-5′-carboxylic acid]
- IC50 [3]: 55.1 ± 5.2 nM
- Ki [3]: 6.4 ± 0.6 nM

SMILES: CC(C)(C)C[C@@H]1N[C@@H](C(N)=O)[C@H](c2cccc(Cl)c2F)[C@]12C(=O)Nc1cc(Cl)ccc12 [9b, (2′S,3R,4′S,5′R)-6-chloro-4′-(3-chloro-2-fluorophenyl)-2′-neopentyl-2-oxospiro[indoline-3,3′-pyrrolidine]-5′-carboxamide]
- IC50 [3]: 22.5 ± 2.2 nM
- Ki [3]: 1.9 ± 0.2 nM

SMILES: CN(C)C(=O)[C@@H]1N[C@@H](CC(C)(C)C)[C@@]2(C(=O)Nc3cc(Cl)c(F)cc32)[C@H]1c1cccc(Cl)c1 [10b, (2′S,3R,4′R,5′R)-6-chloro-4′-(3-chlorophenyl)-5-fluoro-N,Ndimethyl-2′-neopentyl-2-oxospiro[indoline-3,3′-pyrrolidine]-5′-carboxamide]
- IC50 [3, 14]: 835 ± 121 nM
- Ki [3, 15]: 113 ± 16 nM

SMILES: CNC(=O)[C@@H]1N[C@@H](CC(C)(C)C)[C@@]2(C(=O)Nc3cc(Cl)c(F)cc32)[C@H]1c1cccc(Cl)c1 [11b, (2′S,3R,4′R,5′R)-6-chloro-4′-(3-chlorophenyl)-5-fluoro-Nmethyl-2′-neopentyl-2-oxospiro[indoline-3,3′-pyrrolidine]-5′-carboxamide]
- IC50 [3, 14]: 112 ± 12 nM
- Ki [3, 15]: 14.2 ± 1.1 nM

SMILES: CC(C)(C)C[C@H]1N[C@@H](C(=O)NCC[C@H](O)CO)[C@H](c2cccc(Cl)c2)[C@@]12C(=O)Nc1cc(Cl)c(F)cc12.Cl [MI-219]
- binding affinity to MDM2 (MDM2): low nanomolar affinity
- tumor growth in animal models of human cancer [12]: strongly inhibits tumor growth
